From patent publication US11584742B2 (MASARYKOVA UNIVERZITA, priority 2018, dated 2023)

Assays:
MRE11 = target: T1, MRE11 (Homo sapiens, UniProt P49959); assay: HTS nuclease assay (cleavage of CY5/BBQ-quenched 5' overhang DNA substrate); assay type: biochemical; conditions: in vitro HTS nuclease assay; 18 nM MRE11, 40 nM DNA substrate; analysis at t=4 h
T1 sequence (P49959 1-708): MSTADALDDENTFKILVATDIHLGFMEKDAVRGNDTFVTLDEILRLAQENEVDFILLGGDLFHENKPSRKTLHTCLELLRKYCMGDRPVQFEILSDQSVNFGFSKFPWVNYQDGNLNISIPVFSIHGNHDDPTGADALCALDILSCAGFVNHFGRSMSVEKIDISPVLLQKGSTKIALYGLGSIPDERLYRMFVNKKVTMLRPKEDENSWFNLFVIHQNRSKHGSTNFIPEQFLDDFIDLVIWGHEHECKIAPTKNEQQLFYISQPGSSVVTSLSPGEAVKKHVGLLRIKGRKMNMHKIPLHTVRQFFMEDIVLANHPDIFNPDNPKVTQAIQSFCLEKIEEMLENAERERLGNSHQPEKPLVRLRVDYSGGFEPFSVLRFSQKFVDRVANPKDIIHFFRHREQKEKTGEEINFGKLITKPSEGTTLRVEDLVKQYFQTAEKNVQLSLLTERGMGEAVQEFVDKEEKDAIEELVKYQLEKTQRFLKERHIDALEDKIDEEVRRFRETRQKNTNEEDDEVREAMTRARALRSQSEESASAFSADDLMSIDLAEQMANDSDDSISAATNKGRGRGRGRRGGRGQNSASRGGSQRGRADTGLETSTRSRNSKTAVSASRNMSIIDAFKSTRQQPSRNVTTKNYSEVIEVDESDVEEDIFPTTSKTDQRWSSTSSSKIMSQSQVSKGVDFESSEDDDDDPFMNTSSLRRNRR
Protocol: DNA Substrate Preparation
The DNA substrate is prepared by mixing the oligonucleotides listed below in a 1:1 ratio to reach a final concentration of 6 μM in a buffer containing 50 mM Tris pH 7.5, 100 mM NaCl and 8 mM MgCl2.
This substrate is a 5′ overhang, which is a preferred substrate of MRE11. […] The fluorescence increases upon substrate cleavage by MRE11, when separation of the two labels occur.
The conditions of the assay are as follows:
Total reaction volume: 5 μL
DNA substrate concentration in the reaction: 40 nM
Inhibitor concentration range tested: 7 nM-50 μM
Each plate contains a series of high and low signal control wells, where no compound is added:
High signal: MRE11+DNA substrate
Low signal: DNA substrate only
These are used during data evaluation.
Two extra assay controls:
1) To check whether unwinding of DNA by the compounds alone occurs.
The DNA substrate [CY5+BBQ(650)] is mixed with the compounds with no protein present.
The CY5 single stranded oligo is mixed with the compounds with no protein present.
The layout of the plates is created by the in-house software (CZ-Openscreen Prague) and this information is transferred to the robotic HTS station.
The reaction is started by the addition of DNA and the reaction time is counted from that moment, including a 15 min delay. Ten timepoints are measured:
The assay data analysis was performed at t=4 h. This corresponds to the time when the reaction is close to its maximum.
The data analysis was performed using the in-house software to obtain IC50 for each compound.

DR-GFP U2OS cells = assay: HR assay (GFP fluorescence after I-SceI transfection, flow cytometry); assay type: cell-based; conditions: Homo sapiens, inhibitor at 25 μM, 72 hours after transfection
Protocol: DR-GFP U2OS cells (Methods in Molecular Biology 2012, 920, 379.) were transfected with 2.5 μg of I-SceI-expressing pCAGGS vector and treated with the inhibitors at 25 μM concentration. 72 hours after the transfection, the cells were trypsinized and resuspended in 3% BSA in PBS. GFP fluorescence detection was carried out using a BD FACSVerse flow cytometer and data analyzed with FlowJo software.

Structure (SMILES)	IC50 (MRE11) [µM]	inhibition at 25 µM (DR-GFP U2OS cells) [%]
N#C/C(=C\c1ccc(O)c(O)c1)C(=O)Nc1nc(-c2ccc(C#N)s2)cs1 [Preparative Example 183, (E)-2-cyano-N-(4-(5-cyanothiophen-2-yl)thiazol-2-yl)-3-(3,4-dihydroxyphenyl)acrylamide]	< 2	< 50
N#C/C(=C\c1ccc(O)c(O)c1)C(=O)Nc1nc(-c2cccc(Br)c2)cs1 [Preparative Example 169, (E)-N-(4-(3-bromophenyl)thiazol-2-yl)-2-cyano-3-(3,4-dihydroxyphenyl)acrylamide]	< 2	> 75
N#C/C(=C\c1ccc(O)c(O)c1)C(=O)Nc1nc2c(s1)CCCC2 [Preparative Example 191]	< 2	< 50
CC(C)(O)c1csc(NC(=O)/C(C#N)=C/c2ccc(O)c(O)c2)n1 [Preparative Example 167, (E)-2-cyano-3-(3,4-dihydroxyphenyl)-N-(4-(2-hydroxypropan-2-yl)thiazol-2-yl)acrylamide]	2 to 10	< 50
N#C/C(=C\c1ccc(O)c(O)c1)C(=O)Nc1nc(-c2cccc(C#N)c2)cs1 [Preparative Example 180, (E)-2-cyano-N-(4-(3-cyanophenyl)thiazol-2-yl)-3-(3,4-dihydroxyphenyl)acrylamide]	< 2	50 to 75
COC(=O)c1ccc(-c2csc(NC(=O)/C(C#N)=C/c3ccc(O)c(O)c3)n2)cc1 [Preparative Example 189, Methyl (E)-4-(2-(2-cyano-3-(3,4-dihydroxyphenyl)acrylamido)thiazol-4-yl)benzoate]	< 2	50 to 75
N#C/C(=C\c1ccc(O)c(O)c1)C(=O)Nc1nc(-c2ccc(OC(F)(F)F)cc2)c(C2CCCCC2)s1 [Preparative Example 175, (E)-2-cyano-N-(5-cyclohexyl-4-(4-(trifluoromethoxy)phenyl)thiazol-2-yl)-3-(3,4-dihydroxyphenyl)acrylamide]	2 to 10	> 75
N#C/C(=C\c1ccc(O)c(O)c1)C(=O)Nc1nc(-c2ccc(F)cc2)cs1 [Preparative Example 187, (E)-2-cyano-3-(3,4-dihydroxyphenyl)-N-(4-(4-fluorophenyl)thiazol-2-yl)acrylamide]	< 2	> 75
N#C/C(=C\c1ccc(O)c(O)c1)C(=O)Nc1nc(-c2ccccc2Br)cs1 [Preparative Example 170, (E)-N-(4-(2-bromophenyl)thiazol-2-yl)-2-cyano-3-(3,4-dihydroxyphenyl)acrylamide]	< 2	50 to 75
N#C/C(=C\c1ccc(O)c(O)c1)C(=O)Nc1nc(-c2cccc(OC(F)(F)F)c2)cs1 [Preparative Example 171, (E)-2-cyano-3-(3,4-dihydroxyphenyl)-N-(4-(3-(trifluoromethoxy)phenyl)thiazol-2-yl)acrylamide]	2 to 10	50 to 75
N#C/C(=C\c1ccc(O)c(O)c1)C(=O)Nc1nc(-c2cc3ccccc3o2)cs1 [Preparative Example 173, (E)-N-(4-(benzofuran-2-yl)thiazol-2-yl)-2-cyano-3-(3,4-dihydroxyphenyl)acrylamide]	< 2	> 75

Now from value to compound, other results behind:

IC50 (MRE11) [µM]	Structure (SMILES)	inhibition at 25 µM (DR-GFP U2OS cells) [%]
2 to 10	N#C/C(=C\c1ccc(O)c2ccccc12)C(=O)Nc1nc(-c2ccccc2)cs1 [Preparative Example 227, (E)-2-cyano-3-(4-hydroxynaphthalen-1-yl)-N-(4-phenylthiazol-2-yl)acrylamide]	> 75
2 to 10	N#C/C(=C\c1ccccc1F)C(=O)Nc1nc(-c2ccccc2)cs1 [Preparative Example 206, (E)-2-cyano-3-(2-fluorophenyl)-N-(4-phenylthiazol-2-yl)acrylamide]	< 50
2 to 10	N#C/C(=C\c1cccc(C(F)(F)F)c1)C(=O)Nc1nc(-c2ccccc2)cs1 [Preparative Example 231, (E)-2-cyano-N-(4-phenylthiazol-2-yl)-3-(3-(trifluoromethyl)phenyl)acrylamide]	< 50
10 to 90	Cc1cc(O)ccc1/C=C(\C#N)C(=O)Nc1nc(-c2ccccc2)cs1 [Preparative Example 225, (E)-2-cyano-3-(4-hydroxy-2-methylphenyl)-N-(4-phenylthiazol-2-yl)acrylamide]	< 50
< 2	CC(C)(C)c1csc(NC(=O)/C(C#N)=C/c2ccc(O)c(O)c2)n1 [Preparative Example 199, (E)-N-(4-(tert-butyl)thiazol-2-yl)-2-cyano-3-(3,4-dihydroxyphenyl)acrylamide]	50 to 75
< 2	N#C/C(=C\c1ccc(O)c(O)c1)C(=O)Nc1nc(-c2ccc(Br)s2)cs1 [Preparative Example 219, (E)-N-(4-(5-bromothiophen-2-yl)thiazol-2-yl)-2-cyano-3-(3,4-dihydroxyphenyl) acrylamide]	> 75
< 2	Cc1ccc(-c2csc(NC(=O)/C(C#N)=C/c3ccc(O)c(O)c3)n2)cn1 [Preparative Example 232, (E)-2-cyano-3-(3,4-dihydroxyphenyl)-N-(4-(6-methylpyridin-3-yl)thiazol-2-yl)acrylamide]	< 50
2 to 10	N#C/C(=C\c1ccc(C(=O)O)cc1)C(=O)Nc1nc(-c2ccccc2)cs1 [Preparative Example 204, (E)-4-(2-cyano-3-oxo-3-((4-phenylthiazol-2-yl)amino)prop-1-en-1-yl)benzoic acid]	< 50
< 2	COc1ccc(-c2csc(NC(=O)/C(C#N)=C/c3ccc(O)c(O)c3)n2)cc1C1CC1 [Preparative Example 198, (E)-2-cyano-N-(4-(3-cyclopropyl-4-methoxyphenyl)thiazol-2-yl)-3-(3,4-dihydroxyphenyl)acrylamide]	> 75
10 to 90	N#C/C(=C\c1cc(F)c(O)c(F)c1)C(=O)Nc1nc(-c2ccccc2)cs1 [Preparative Example 212, (E)-2-cyano-3-(3,5-difluoro-4-hydroxyphenyl)-N-(4-phenylthiazol-2-yl)acrylamide]	< 50
< 2	Cc1ccc(-c2csc(NC(=O)/C(C#N)=C/c3ccc(O)c(O)c3)n2)s1 [Preparative Example 229, (E)-2-cyano-3-(3,4-dihydroxyphenyl)-N-(4-(5-methylthiophen-2-yl)thiazol-2-yl)acrylamide]	50 to 75
10 to 90	N#C/C(=C\c1ccc(O)cc1F)C(=O)Nc1nc(-c2ccccc2)cs1 [Preparative Example 226, (E)-2-cyano-3-(2-fluoro-4-hydroxyphenyl)-N-(4-phenylthiazol-2-yl)acrylamide]	> 75
2 to 10	N#C/C(=C\c1ccc(O)c(Cl)c1)C(=O)Nc1nc(-c2ccccc2)cs1 [Preparative Example 201, (E)-3-(3-chloro-4-hydroxyphenyl)-2-cyano-N-(4-phenylthiazol-2-yl)acrylamide]	50 to 75
10 to 90	N#C/C(=C\c1ccc([N+](=O)[O-])cc1)C(=O)Nc1nc(-c2ccccc2)cs1 [Preparative Example 209, (E)-2-cyano-3-(4-nitrophenyl)-N-(4-phenylthiazol-2-yl)acrylamide]	50 to 75
10 to 90	N#C/C(=C\c1ccc2c(c1)OCC(=O)N2)C(=O)Nc1nc(-c2ccccc2)cs1 [Preparative Example 220, (E)-2-cyano-3-(3-oxo-3,4-dihydro-2H-benzo[b][1,4]oxazin-7-yl)-N-(4-phenylthiazol-2-yl)acrylamide]	50 to 75
